The text below walks through data of patent publication US9730937B2, “RAF kinase modulator compounds and methods of use thereof” (AMBIT BIOSCIENCES CORPORATION, priority 2008, dated 2017).

In this test the test system is panel of 290 distinct kinases (321 in the larger panel), excluding mutant variants. Conditions: no asterisk: panel of 290 distinct kinases.
Method: The liganded beads were blocked with excess biotin and washed with blocking buffer (SeaBlock (Pierce), 1% BSA, 0.05% Tween 20, 1 mM DTT) to remove unbound ligand and to reduce non-specific binding. […] Test compounds were prepared as 100× stocks in DMSO and rapidly diluted into the aqueous environment. DMSO was added to control assays lacking a test compound. Primary screen interactions were performed in polypropylene 384-well plates in a final volume of 34 μL, while Kd determinations were performed in polystyrene 96-well plates in a final volume of 135 μL. […] The kinase concentration in the eluates was measured by quantitative PCR. Each kinase was tested individually against each compound. KdS were determined using eleven serial threefold dilutions. A selectivity score, which is a quantitative measure of selectivity of a compound against a panel of enzymes, may be calculated for a compound by dividing the number of enzymes for which a compound meets a set criteria, (for example, a binding constant of 100 nM or less), by the total number of enzymes tested. […] (Note, for those compounds tested in a larger kinase panel, as indicated by an asterisk (*) next to the S35 score, the divisor is 321 (i.e. the larger panel contains 321 distinct kinases, excluding mutant variants.)).
For `COc1cc2ncnc(Sc3cccc(NC(=O)Nc4cc(C(C)(C)C)nn4-c4ccccc4F)c3)c2cc1OC` [Ex 371, 1-(3-tert-butyl-1-(2-fluorophenyl)-1H-pyrazol-5-yl)-3-(3-(6,7-dimethoxyquinazolin-4-ylthio)phenyl)urea], the S35 entry is “D (D > 0.40)”. As for `COc1cc2ncnc(Oc3cccc(NC(=O)Nc4cc(C(C)(C)C)nn4-c4ccccc4F)c3)c2cc1OC` [Ex 372, 1-(3-tert-butyl-1-(2-fluorophenyl)-1H-pyrazol-5-yl)-3-(3-(6,7-dimethoxyquinazolin-4-yloxy)phenyl)urea], the entry is “D (D > 0.40)”; as for `COc1cc2ncnc(Oc3cccc(NC(=O)Nc4cc(C(C)(C)C)nn4-c4ccc(C(F)(F)F)cc4)c3)c2cc1OC` [Ex 373, 1-(3-tert-butyl-1-(4-(trifluoromethyl)phenyl)-1H-pyrazol-5-yl)-3-(3-(6,7-dimethoxyquinazolin-4-yloxy)phenyl)urea], “C (0.20 < C ≦ 0.40)”. The entry for `COc1cc2ncnc(Sc3cccc(NC(=O)Nc4cc(C(C)(C)C)nn4-c4ccccc4C(F)(F)F)c3)c2cc1OC` [Ex 375, 1-(3-tert-butyl-1-(2-(trifluoromethyl)phenyl)-1H-pyrazol-5-yl)-3-(3-(6,7-dimethoxyquinazolin-4-ylthio)phenyl)urea] is “C (0.20 < C ≦ 0.40)”; for `COc1cc2ncnc(Oc3cccc(NC(=O)Nc4cc(C(C)(C)C)nn4-c4ccccc4C(F)(F)F)c3)c2cc1OC` [Ex 376, 1-(3-tert-butyl-1-(2-(trifluoromethyl)phenyl)-1H-pyrazol-5-yl)-3-(3-(6,7-dimethoxyquinazolin-4-yloxy)phenyl)urea] it is “D (D > 0.40)”; for `COc1cc2ncnc(Oc3cccc(NC(=O)Nc4cc(C5(C(F)(F)F)CC5)on4)c3)c2cc1OC` [Ex 377, 1-(3-(6,7-dimethoxyquinazolin-4-yloxy)phenyl)-3-(5-(1-(trifluoromethyl)cyclopropyl)isoxazol-3-yl)urea] it is “C (0.20 < C ≦ 0.40)”.

As to `COc1cc2ncnc(Sc3cccc(NC(=O)Nc4cc(C5(C(F)(F)F)CC5)on4)c3)c2cc1OC` [Ex 378, 1-(3-(6,7-dimethoxyquinazolin-4-ylthio)phenyl)-3-(5-(1-(trifluoromethyl)cyclopropyl)isoxazol-3-yl)urea], the S35 entry is “C (0.20 < C ≦ 0.40)”. For the molecule `COc1cc2ncnc(Oc3cccc(NC(=O)Nc4cc(C(C)(C)C)nn4-c4cccc(C(F)(F)F)c4)c3)c2cc1OC` [Ex 379, 1-(3-tert-butyl-1-(3-(trifluoromethyl)phenyl)-1H-pyrazol-5-yl)-3-(3-(6,7-dimethoxyquinazolin-4-yloxy)phenyl)urea], the S35 result was “D (D > 0.40)”.

As to `COc1cc2ncnc(Sc3cccc(NC(=O)Nc4cc(C(C)(C)C)nn4-c4cccc(C(F)(F)F)c4)c3)c2cc1OC` [Ex 380, 1-(3-tert-butyl-1-(3-(trifluoromethyl)phenyl)-1H-pyrazol-5-yl)-3-(3-(6,7-dimethoxyquinazolin-4-ylthio)phenyl)urea], the S35 result is listed as “C (0.20 < C ≦ 0.40)”.

Take `COc1cc2ncnc(Sc3cccc(NC(=O)Nc4cc(C(C)(C)C#N)no4)c3)c2cc1OC` [Ex 381, 1-(3-(2-cyanopropan-2-yl)isoxazol-5-yl)-3-(3-(6,7-dimethoxyquinazolin-4-ylthio)phenyl)urea]: the S35 result is “C (0.20 < C ≦ 0.40)”. The entry for `COc1cc2ncnc(Sc3cccc(NC(=O)Nc4cc(C(F)(F)F)no4)c3)c2cc1OC` [Ex 382, 1-(3-(6,7-dimethoxyquinazolin-4-ylthio)phenyl)-3-(3-(trifluoromethyl)isoxazol-5-yl)urea] is “C (0.20 < C ≦ 0.40)”; for `COc1cc2ncnc(Sc3cccc(NC(=O)Nc4cc(C5(C(F)(F)F)CC5)nn4-c4ccccc4)c3)c2cc1OC` [Ex 383, 1-(3-(6,7-dimethoxyquinazolin-4-ylthio)phenyl)-3-(1-phenyl-3-(1-(trifluoromethyl)cyclopropyl)-1H-pyrazol-5-yl)urea] it is “C (0.20 < C ≦ 0.40)”.
